Columns and labels:
[1] = system: T. gondii parasites; experiment: Determination of ROS formation by FACS (CellROX deep red); format: cell-based, Toxoplasma gondii; conditions: 66 μM, 18 hours, compared with untreated parasites
Experimental: Once it had been established that two of the synthesised ferrocenyl benzimidazole derivatives were biologically active, their potential mode of action was explored. Given the presence of the ferrocenyl moiety, and the cyclic voltammetry results, it was of interest to investigate whether the compounds induce ROS, which may provide an explanation for their anti-parasitic activity. Thus, cells heavily infected with parasites were incubated with target compounds for 18 hours, before isolating the parasites and staining them with CellRox deep red reagent. CellRox is an oxidation sensitive dye which is non-fluorescent in its reduced state but fluoresces bright red at 665 nm upon being oxidised by ROS. FACS was then used to quantify CellROX parasite florescence.[56] Parasites were incubated with ferrocene carboxylic acid (FcCOOH), and untreated parasites were used as controls.
6 cm dishes of host cells heavily infected with T. gondii were untreated or treated with 66 μM (second highest concentration used in growth inhibition assays) of test compounds for 18 hours. The dishes were then scratched and syringed, before filtering the solution into 10 mL falcon tubes to remove cell debris. The tubes were spun down for 10 minutes at 1500 rpm. The media was then removed from the tubes, and the pellet resuspended in 200 μL of PBS buffer. For each drug, 100 μL of the resuspended pellet was then placed into 2 FACS tubes, one which would then be stained with CellROX dye, and the other 100 μL of PBS added to act as an unstained control. A 1 : 125 dilution of CellROX stock solution was performed, and 100 μL of this solution added to the FACS tubes needing staining. Stained tubes were incubated at 37 °C for at least 15 min before analysis on a BD Celesta flow cytometer. Data was obtained using FACSDiva software with parasites being gated on forward scatter, side scatter and green fluorescence. FlowJo v10 software was used to plot the geometric mean of CellRox fluorescence from at least 5000 parasites on the Cy7 channel.

[2] = system: T. gondii; experiment: Fluorescence microscopy of infected cells; format: cell-based, Toxoplasma gondii; conditions: 50 μM
Experimental: To visualise the impact of the target compounds on the parasites, fluorescence microscopy was performed. Compound 17 was used as a representative for the two active compounds and was incubated with infected cells at a concentration of 50 μM for 24 and 48 hours. Fluorescence microscopy images were obtained at each of the timepoints (Fig. 5).
A 24 well plate of HFF host cells grown on cover slips was infected with 100 μL of parasites per well and incubated at 37 °C for 1 h. The media in the wells was aspirated and replaced with media containing 50 μM of 17 The plate was once again incubated for 24 or 48 h at 37 °C. Once incubation was complete, the cells were washed once with PBS, before fixation with 500 μL of 4% paraformaldehyde (PFA) at room temperature for 20 minutes. Cells were washed and 500 μL of blocking buffer (2% bovine serum albumin (BSA) in mL PBST (PBS, 0.2% Triton x-100 solution) and incubated for 20 min at room temperature. The cover slips were then carefully removed from each well, mounted using Fluoromount with DAPI (Southern Biotech), and placed facing down on a microscope slide. Images were obtained using a Leica DiM8 (Leica Microsystems) microscope and processed and deconvolved using SoftWoRx and FIJI software.

O=C(NCCn1cnc2cccnc21)[c-]1cccc1.[Fe+2].c1cc[cH-]c1 [Compound 17]
ROS formation in treated parasites (CellRox red fluorescence) [1]: triggered the formation of ROS
Parasite plasma membrane integrity (fluorescence microscopy) ([2]; 24 hours, leakage of fluorescent protein): damaged plasma membranes
Daughter cell division of parasites that continued to grow (fluorescence microscopy) ([2]; 48 hours): abnormal daughter cell division
